Measurements reported in paper PMC4335062, “Data-Driven Prediction and Design of bZIP Coiled-Coil Interactions” (PLoS Computational Biology, 2015).
Like-named read-outs stand apart in the source and are kept apart here. Where no end group is shown, it is not given here.

Key:
Assay in all cases: Direct-binding FRET assay
[1] = molecular target: T1, DBP (Homo sapiens, UniProt Q10586); settings: Kd
T1 construct: made in house
T1 sequence (Q10586 255-318 limits assumed): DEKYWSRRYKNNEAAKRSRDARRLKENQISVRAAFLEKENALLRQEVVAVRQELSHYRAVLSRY
Experimental: (§1) The direct binding assay was performed manually in 384-well plates and is similar to a previously described assay. Wells were filled with 20 μL of 1 mM TCEP-HCl. A 4 μM stock of acceptor protein was made fresh in 1 mM TCEP-HCl, and 20 μL was titrated in 2-fold dilutions over the wells. […] The direct-binding FRET data were fit as previously described. Briefly, the Kd of the designed peptide homodimer was experimentally determined and used with previously determined target homodimer Kd values to determine the heterodimer Kd. The homodimer Kd values used for the human bZIPs were from; experiments done by […] et al. used the same protein constructs for the human bZIP proteins, the same buffer conditions, and the same assay. The fitting used a system of ordinary differential equations to describe the concentrations of homo and heterodimers formed by the donor (D) and acceptor (A) as a function of the heterodimer Kd. MATLAB was used to simulate the binding experiment for different Kd values, and the value that gave the best agreement between simulation and experiment was assigned. A minimum 15% change in the donor fluorescence upon titrating the acceptor peptide from 0 to 1000 nM was required for a fit to be attempted. If this minimum was not met, the interaction was classified as “NS” for no signal change. […] These interactions were marked “AS” to indicate anomalous signal. We attributed this to interactions between the peptides, the dyes and the walls of the assay plates at low concentrations. These curves could not be fit, given their unusual shapes at low concentrations of acceptor. For such curves, we removed the first five points and re-fit the data. […] One example of this is increasing concentrations of acceptor causing an increase in donor fluorescence.

[2] = molecular target: T2, CREBZF (Homo sapiens, UniProt Q9NS37)
T2 construct: made in house
T2 sequence (Q9NS37 204-267 limits assumed): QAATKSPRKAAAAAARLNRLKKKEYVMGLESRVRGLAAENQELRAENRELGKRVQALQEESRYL
Experimental: as §1

[3] = molecular target: T3, BATF3 (Homo sapiens, UniProt Q9NR55); settings: Kd, mean or single
T3 construct: made in house
T3 sequence (Q9NR55 35-98 limits assumed): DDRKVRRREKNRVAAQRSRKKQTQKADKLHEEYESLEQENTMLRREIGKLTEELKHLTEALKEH
Experimental: as §1

[4] = molecular target: T4, FOSL1 (Homo sapiens, UniProt P15407)
T4 construct: made in house
T4 sequence (P15407 105-168 limits assumed): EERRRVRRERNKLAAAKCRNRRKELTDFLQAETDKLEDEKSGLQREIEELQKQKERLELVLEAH
Experimental: as §1

[5] = molecular target: T5, NFIL3 (Homo sapiens, UniProt Q16649)
T5 construct: made in house
T5 sequence (Q16649 73-136 limits assumed): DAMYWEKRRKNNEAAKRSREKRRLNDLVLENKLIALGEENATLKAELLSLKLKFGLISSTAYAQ
Experimental: as §1

[6] = molecular target: T6, HLF (Homo sapiens, UniProt Q16534)
T6 construct: made in house
T6 sequence (Q16534 225-288 limits assumed): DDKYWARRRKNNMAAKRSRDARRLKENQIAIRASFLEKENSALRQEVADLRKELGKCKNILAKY
Experimental: as §1

[7] = molecular target: T7, ATF5 (Homo sapiens, UniProt Q9Y2D1); settings: Kd
T7 construct: made in house
T7 sequence (Q9Y2D1 208-271 limits assumed): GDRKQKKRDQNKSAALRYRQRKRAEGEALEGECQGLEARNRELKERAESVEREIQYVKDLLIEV
Experimental: as §1

[8] = molecular target: T8, ATF2 (Homo sapiens, UniProt P15336); settings: Kd, N-terminal rhodamine design, mean or single
T8 construct: made in house
T8 sequence (P15336 352-415 limits assumed): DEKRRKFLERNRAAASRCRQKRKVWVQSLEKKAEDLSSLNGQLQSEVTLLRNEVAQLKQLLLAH
Experimental: as §1

[9] = molecular target: T9, JUNB (Homo sapiens, UniProt P17275); settings: Kd, mean or single
T9 construct: made in house
T9 sequence (P17275 268-331 limits assumed): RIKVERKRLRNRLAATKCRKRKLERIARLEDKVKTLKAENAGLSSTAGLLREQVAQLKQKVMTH
Experimental: as §1

[10] = molecular target: T10, BATF (Homo sapiens, UniProt Q16520); settings: Kd
T10 construct: made in house
T10 sequence (Q16520 26-89 limits assumed): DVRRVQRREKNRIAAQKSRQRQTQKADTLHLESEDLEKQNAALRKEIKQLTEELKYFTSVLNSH
Experimental: as §1

[11] = 4°C, C-terminal fluorescein design as donor, TAMRA target titrated
[12] = 4°C, C-terminal rhodamine design, mean or single
[13] = 4°C, N-terminal rhodamine design, mean or single
[14] = 23°C, C-terminal fluorescein design as donor, TAMRA target titrated
[15] = 23°C, C-terminal rhodamine design, mean or single
[16] = 23°C, N-terminal rhodamine design, mean or single
[17] = 37°C, C-terminal fluorescein design as donor, TAMRA target titrated
[18] = 37°C, C-terminal rhodamine design, mean or single
[19] = 37°C, N-terminal rhodamine design, mean or single
[20] = 4°C, C-terminal rhodamine design
[21] = 4°C, N-terminal rhodamine design
[22] = 23°C, C-terminal rhodamine design
[23] = 23°C, N-terminal rhodamine design
[24] = 37°C, C-terminal rhodamine design
[25] = 37°C, N-terminal rhodamine design

For “SIAATLEKEEANLEKMNKKLAAEIESLLKEKDKLESVLNYHE [JUN-d1]”, the Kd [1, 11] was greater than 1000 nM, the Kd [1, 12] was greater than 5000 nM and the Kd [1, 13] was greater than 1000 nM. It also gave a Kd [1, 14] greater than 1000 nM, a Kd [1, 15] greater than 5000 nM and a Kd [1, 16] greater than 1000 nM. The Kd [1, 17] was greater than 1000 nM, the Kd [1, 18] was greater than 1000 nM and the Kd [1, 19] was greater than 1000 nM. It also gave a Kd [2] greater than 1000 nM, a Kd [2, 11] greater than 1000 nM and a Kd [2, 12] greater than 1000 nM. For the same sequence, the Kd [2, 13] was greater than 1000 nM, the Kd [2, 14] was greater than 1000 nM and the Kd [2, 15] was greater than 1000 nM. For the same sequence, the Kd [2, 16] was greater than 1000 nM, the Kd [2, 17] was greater than 1000 nM and the Kd [2, 19] was greater than 1000 nM. The Kd [3, 20] was 362 nM, the Kd [3, 21] was greater than 1000 nM and the Kd [3, 22] was greater than 5000 nM. The Kd [3, 23] was greater than 1000 nM, the Kd [3, 24] was greater than 1000 nM and the Kd [3, 25] was greater than 1000 nM. For the same sequence, the Kd [4] was greater than 1000 nM, the Kd [4, 12] was greater than 1000 nM and the Kd [4, 13] was greater than 1000 nM. For the same sequence, the Kd [4, 15] was greater than 1000 nM, the Kd [4, 16] was greater than 1000 nM and the Kd [4, 19] was greater than 1000 nM. It also gave a Kd [5] greater than 1000 nM, a Kd [5, 11] greater than 1000 nM and a Kd [5, 12] greater than 1000 nM. The Kd [5, 13] was greater than 1000 nM, the Kd [5, 14] was greater than 1000 nM and the Kd [5, 15] was greater than 1000 nM. For the same sequence, the Kd [5, 16] was greater than 1000 nM, the Kd [5, 17] was greater than 1000 nM and the Kd [5, 19] was greater than 1000 nM. It also gave a Kd [6] greater than 1000 nM, a Kd [6, 11] greater than 1000 nM and a Kd [6, 12] greater than 1000 nM. It also gave a Kd [6, 13] greater than 1000 nM, a Kd [6, 14] greater than 1000 nM and a Kd [6, 15] greater than 1000 nM. The Kd [6, 16] was greater than 1000 nM, the Kd [6, 17] was greater than 1000 nM and the Kd [6, 19] was greater than 1000 nM. It also gave a Kd [7, 11] greater than 1000 nM, a Kd [7, 12] greater than 5000 nM and a Kd [7, 13] greater than 1000 nM. It also gave a Kd [7, 14] greater than 1000 nM, a Kd [7, 15] greater than 1000 nM and a Kd [7, 16] greater than 1000 nM. For the same sequence, the Kd [7, 17] was greater than 1000 nM, the Kd [7, 18] was greater than 1000 nM and the Kd [7, 19] was greater than 1000 nM. It also gave a Kd ([8]; 4°C) of 200 to 1000 nM, a Kd ([8]; 23°C) greater than 1000 nM and a Kd ([8]; 37°C) greater than 1000 nM. It also gave a Kd [9, 20] of 1 nM, a Kd [9, 21] of 2.7 nM and a Kd [9, 22] of 8.4 nM. It also gave a Kd [9, 23] of 53 nM, a Kd [9, 24] of 51 nM and a Kd [9, 25] of 850 nM. The Kd [10, 11] was greater than 1000 nM, the Kd [10, 12] was 200 to 1000 nM and the Kd [10, 13] was greater than 1000 nM. It also gave a Kd [10, 14] greater than 1000 nM, a Kd [10, 15] greater than 1000 nM and a Kd [10, 16] greater than 1000 nM. For the same sequence, the Kd [10, 17] was greater than 1000 nM, the Kd [10, 18] was greater than 1000 nM and the Kd [10, 19] was greater than 1000 nM.
